Laboratory results reported in EP1534716B1, “HETEROBICYCLIC PYRAZOLE DERIVATIVES AS KINASE INHIBITORS” (priority 2002, dated 2004).
Where a name gives a salt, the structure may show the parent alone.

What was measured:
Format in all cases: biochemical
PAK4 = PAK4 (Homo sapiens, UniProt O96013); assay: PAK4 inhibition
Aurora-2 = molecular target: T1, Aurora-2 (Homo sapiens, UniProt O14965); assay: Inhibition assay of Aurora-2 activity (SPA); conditions: 10 µM ATP, 60 minutes at room temperature
T1 sequence (O14965 1-403): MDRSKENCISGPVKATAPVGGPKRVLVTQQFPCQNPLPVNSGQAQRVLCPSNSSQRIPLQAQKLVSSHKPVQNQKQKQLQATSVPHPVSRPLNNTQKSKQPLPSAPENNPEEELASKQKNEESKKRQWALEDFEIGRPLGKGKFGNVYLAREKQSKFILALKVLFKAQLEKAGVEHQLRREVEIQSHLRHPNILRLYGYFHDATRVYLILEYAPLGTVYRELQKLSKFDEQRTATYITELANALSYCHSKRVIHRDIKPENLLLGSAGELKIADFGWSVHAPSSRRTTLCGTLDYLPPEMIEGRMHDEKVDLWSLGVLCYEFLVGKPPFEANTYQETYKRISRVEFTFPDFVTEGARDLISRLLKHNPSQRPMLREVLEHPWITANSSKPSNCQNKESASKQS
Experimental: (§1) The inhibiting activity of putative cdk/cyclin inhibitors and the potency of selected compounds is determined through a method of assay based on the use of the SPA technology (Amersham Pharmacia Biotech).
(§2) The assay consists of the transfer of radioactivity labelled phosphate moiety by the kinase to a biotinylated substrate. The resulting 33P-labelled biotinylated product is allowed to bind to streptavidin-coated SPA beads (biotin capacity 130 pmol/mg), and light emitted was measured in a scintillation counter.
(§3) Experimental data were analyzed by the computer program GraphPad Prizm using the four parameter logistic equation: [formula] where x is the logarithm of the inhibitor concentration, y is the response; y starts at bottom and goes to top with a sigmoid shape.
Inhibition assay of Aurora-2 activity
After 60 minutes at room temperature incubation, reaction was stopped and biotinylated peptide captured by adding 100 µl of bead suspension.
Stratification: 100 µl of CsC12 5 M were added to each well and let stand 4 hour before radioactivity was counted in the Top-Count instrument.
IC50 determination: see above

Cdc7/dbf4 = Cdc7/dbf4 (Homo sapiens, UniProt O00311); assay: Inhibition assay of Cdc7/dbf4 activity (SPA); conditions: 2 µM ATP, 60 minutes at 37°C
Experimental: Inhibition assay of Cdc7/dbf4 activity
The inhibition assay of Cdc7/dbf4 activity is performed according to the following protocol.
The Biotin-MCM2 substrate is trans-phosphorylated by the Cdc7/Dbf4 complex in the presence of ATP traced with γ^33-ATP. The phosphorylated Biotin-MCM2 substrate is then captured by Streptavidin-coated SPA beads and the extent of phosphorylation evaluated by β counting.
The inhibition assay of Cdc7/dbf4 activity was performed in 96 wells plate according to the following protocol.
To each well of the plate were added: • 10 µl substrate (biotinylated MCM2, 6 µM final concentration) • 10 µl enzyme (Cdc7/Dbf4, 17.9 nM final concentration) • 10 µl test compound (12 increasing concentrations in the nM to µM range to generate a dose-response curve) • 10 µl of a mixture of cold ATP (2 µM final concentration) and radioactive ATP (1/5000 molar ratio with cold ATP) was then used to start the reaction which was allowed to take place at 37°C.
Substrate, enzyme and ATP were diluted in 50 mM HEPES pH 7.9 containing 15 mM MgCl2, 2 mM DTT, 3 µM NaVO3, 2mM glycerophosphate and 0.2mg/ml BSA. The solvent for test compounds also contained 10% DMSO.
After incubation for 60 minutes, the reaction was stopped by adding to each well 100 µl of PBS pH 7.4 containing 50 mM EDTA, 1 mM cold ATP, 0.1% Triton X100 and 10 mg/ml streptavidin coated SPA beads.
After 20 min incubation, 110 µL of suspension were withdrawn and transferred into 96-well OPTIPLATEs containing 100 µl of 5M CsCl. After 4 hours, the plates were read for 2 min in a Packard TOP-Count radioactivity reader.
IC50 determination: see above.

cdk2/Cyclin A = cdk2/Cyclin A (Homo sapiens, UniProt P24941); assay: Inhibition assay of cdk2/Cyclin A activity (SPA); conditions: 10 µM ATP, 60 min at room temperature
Experimental: as §1, §2
Inhibition assay of cdk2/Cyclin A activity
Kinase reaction: 4 µM in house biotinylated histone H1 (Sigma # H-5505) substrate, 10 µM ATP (0.1 microCi P^33γ-ATP), 1.1 nM Cyclin A/CDK2 complex, inhibitor in a final volume of 30 µl buffer (TRIS HCl 10 mM pH 7.5, MgCl2 10 mM, DTT 7.5 mM + 0.2 mg/ml BSA) were added to each well of a 96 U bottom. After incubation for 60 min at room temperature, the reaction was stopped by addition of 100 µl PBS buffer containing 32 mM EDTA, 500 µM cold ATP, 0.1% Triton X100 and 10mg/ml streptavidin coated SPA beads. After 20 min incubation, 110 µL of suspension were withdrawn and transferred into 96-well OPTIPLATEs containing 100 µl of 5M CsCl. After 4 hours, the plates were read for 2 min in a Packard TOP-Count radioactivity reader.
as §3

Cdc7/dbf4, sequence (O00311 whole entry, species assumed): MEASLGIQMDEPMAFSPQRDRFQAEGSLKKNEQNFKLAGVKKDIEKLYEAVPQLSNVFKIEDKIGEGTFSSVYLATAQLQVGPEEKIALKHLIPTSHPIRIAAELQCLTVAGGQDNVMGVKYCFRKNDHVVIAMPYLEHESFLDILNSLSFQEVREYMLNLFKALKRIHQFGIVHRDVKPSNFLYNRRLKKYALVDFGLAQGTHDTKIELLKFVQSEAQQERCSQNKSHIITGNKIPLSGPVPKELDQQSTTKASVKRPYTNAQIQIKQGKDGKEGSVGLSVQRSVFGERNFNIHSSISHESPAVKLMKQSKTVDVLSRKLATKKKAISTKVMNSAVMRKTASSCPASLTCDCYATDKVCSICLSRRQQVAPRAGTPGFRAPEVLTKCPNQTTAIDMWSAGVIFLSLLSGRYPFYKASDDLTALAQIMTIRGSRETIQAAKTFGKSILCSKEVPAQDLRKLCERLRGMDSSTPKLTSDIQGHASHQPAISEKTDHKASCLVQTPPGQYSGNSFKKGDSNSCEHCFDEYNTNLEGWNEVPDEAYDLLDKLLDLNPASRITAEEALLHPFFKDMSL
Cdc7/dbf4, sequence (Q9UBU7 whole entry partner, species assumed): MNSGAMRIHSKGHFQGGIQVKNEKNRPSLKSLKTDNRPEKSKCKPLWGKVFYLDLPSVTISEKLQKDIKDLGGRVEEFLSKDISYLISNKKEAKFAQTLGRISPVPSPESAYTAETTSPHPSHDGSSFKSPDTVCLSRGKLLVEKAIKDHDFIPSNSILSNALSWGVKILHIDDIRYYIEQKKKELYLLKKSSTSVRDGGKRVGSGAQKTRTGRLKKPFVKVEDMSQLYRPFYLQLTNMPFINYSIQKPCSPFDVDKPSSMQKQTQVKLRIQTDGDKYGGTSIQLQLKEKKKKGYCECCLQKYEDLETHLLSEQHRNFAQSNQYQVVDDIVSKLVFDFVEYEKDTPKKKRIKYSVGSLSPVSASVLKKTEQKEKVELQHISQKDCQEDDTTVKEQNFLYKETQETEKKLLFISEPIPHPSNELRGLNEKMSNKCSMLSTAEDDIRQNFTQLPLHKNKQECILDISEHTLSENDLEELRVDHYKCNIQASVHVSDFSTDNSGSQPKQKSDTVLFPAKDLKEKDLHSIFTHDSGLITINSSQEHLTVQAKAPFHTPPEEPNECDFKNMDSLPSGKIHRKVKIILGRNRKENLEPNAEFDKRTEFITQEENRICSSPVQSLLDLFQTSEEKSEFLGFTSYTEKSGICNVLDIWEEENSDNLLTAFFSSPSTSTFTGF
PAK4, sequence (O96013 whole entry, species assumed): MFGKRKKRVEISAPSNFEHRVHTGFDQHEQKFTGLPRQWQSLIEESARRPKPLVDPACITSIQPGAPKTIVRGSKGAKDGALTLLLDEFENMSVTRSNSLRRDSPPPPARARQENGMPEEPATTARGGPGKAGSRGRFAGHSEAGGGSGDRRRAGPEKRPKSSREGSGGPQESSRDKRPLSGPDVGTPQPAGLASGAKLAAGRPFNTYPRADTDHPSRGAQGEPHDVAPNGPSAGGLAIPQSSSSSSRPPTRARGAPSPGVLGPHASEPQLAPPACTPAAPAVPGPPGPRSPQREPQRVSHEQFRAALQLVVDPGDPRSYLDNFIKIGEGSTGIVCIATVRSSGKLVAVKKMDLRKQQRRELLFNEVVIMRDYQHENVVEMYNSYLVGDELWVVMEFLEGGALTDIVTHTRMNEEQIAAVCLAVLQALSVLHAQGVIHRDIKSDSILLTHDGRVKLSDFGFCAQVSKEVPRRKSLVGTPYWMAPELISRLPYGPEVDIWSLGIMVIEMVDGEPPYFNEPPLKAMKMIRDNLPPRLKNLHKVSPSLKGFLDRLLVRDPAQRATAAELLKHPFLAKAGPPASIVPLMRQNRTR

| IC50 (PAK4) [nM] | IC50 (Aurora-2) [nM] | IC50 (Cdc7/dbf4) [nM] | IC50 (cdk2/Cyclin A) [nM] | Compound |
| --- | --- | --- | --- | --- |
| < 500 | < 100 | < 1000 |  | COC(=O)c1cc2[nH]nc(NC(=O)c3ccc(N4CCOCC4)cc3)c2s1 [Compound 52, methyl 3-[(4-morpholin-4-ylbenzoyl)amino]-1H-thieno[3,2-c]pyrazole-5-carboxylate] |
| < 500 |  | < 1000 | < 500 | CCNC(=O)c1cc2[nH]nc(NC(=O)c3ccc(N4CCN(C)CC4)cc3)c2s1 [Compound 93, N-ethyl-3-{[4-(4-methylpiperazin-1-yl)benzoyl]amino}-1H-thieno[3,2-c]pyrazole-5-carboxamide dihydrochloride] |
| < 500 | < 100 | < 1000 |  | CN1CCN(c2ccc(C(=O)Nc3n[nH]c4cc(C(=O)NCc5ccc(F)cc5)sc34)cc2)CC1 [Compound 95, N-(4-fluorobenzyl)-3-{[4-(4-methylpiperazin-1-yl)benzoyl]amino}-1H-thieno[3,2-c]pyrazole-5-carboxamide] |
| < 500 | < 100 | < 1000 |  | CN1CCN(c2ccc(C(=O)Nc3n[nH]c4cc(C(=O)NCc5ccccc5F)sc34)cc2)CC1 [Compound 101, N-(2-fluorobenzyl)-3-{[4-(4-methylpiperazin-1-yl)benzoyl]amino}-1H-thieno[3,2-c]pyrazole-5-carboxamide] |
| < 500 | < 100 | < 1000 |  | CN1CCN(c2ccc(C(=O)Nc3n[nH]c4cc(C(=O)NCc5ccc(F)cc5F)sc34)cc2)CC1 [Compound 102, N-(2,4-difluorobenzyl)-3-{[4-(4-methylpiperazin-1-yl)benzoyl]amino}-1H-thieno[3,2-c]pyrazole-5-carboxamide] |
| < 500 | < 100 | < 1000 | < 500 | CN1CCN(c2ccc(C(=O)Nc3n[nH]c4cc(C(=O)NCc5ccco5)sc34)cc2)CC1 [Compound 114, N-(2-furylmethyl)-3-{[4-(4-methylpiperazin-1-yl)benzoyl]amino}-1H-thieno[3,2-c]pyrazole-5-carboxamide] |
| < 500 | < 100 | < 1000 |  | CN1CCN(c2ccc(C(=O)Nc3n[nH]c4cc(C(=O)NCc5cccs5)sc34)cc2)CC1 [Compound 115, 3-{[4-(4-methylpiperazin-1-yl)benzoyl]amino}-N-(thien-2-ylmethyl)-1H-thieno[3,2-c]pyrazole-5-carboxamide] |
|  | < 100 | < 1000 | < 500 | CCC(NC(=O)c1cc2[nH]nc(NC(=O)c3ccc(N4CCN(C)CC4)cc3)c2o1)c1ccccc1 (stereo not shown) [Compound 165, 3-{[4-(4-methylpiperazin-1-yl)benzoyl]amino}-N-[1-phenylpropyl]-1H-furo[3,2-c]pyrazole-5-carboxamide] |
